Laboratory results from patent US9511058B2, “Methods for using carboxamide, sulfonamide and amine compounds” (Rigel Pharmaceuticals, Inc., priority 2010, dated 2016).

Molecular target: AMPK
Assay: AMPK activation, enzyme-linked immunosorbent assay
Assay type: biochemical

With `Cn1cnc(CN2CCC(NC(=O)c3ccc4[nH]c5c(c4c3)CN(Cc3ccc(C(F)(F)F)cc3)CC5)CC2)c1` [2-53, N-(1-((1-methyl-1H-imidazol-4-yl)methyl)piperidin-4-yl)-2-(4-(trifluoromethyl)benzyl)-2,3,4,5-tetrahydro-1H-pyrido [4,3-b]indole-8-carboxamide] the EC50 (compounds of Table 2 (Table 7)) was 10000 to 50000 nM.

`O=C(NC1CCN(Cc2cocn2)CC1)c1ccc2[nH]c3c(c2c1)CN(Cc1ccc(C(F)(F)F)cc1)CC3` [2-54, N-(1-(oxazol-4-ylmethyl)piperidin-4-yl)-2-(4-(trifluoromethyl)benzyl)-2,3,4,5-tetrahydro-1H-pyrido [4,3-b]indole-8-carboxamide] was tested, and the EC50 (compounds of Table 2 (Table 7)) was under 500 nM.

`CC(C)(C)OC(=O)N1CCC(NC(=O)c2nc3ccc(OC4CCN(c5ccc(C(F)(F)F)cc5)CC4)cc3o2)CC1` [3-1, tert-butyl 4-(6-(1-(4-(trifluoromethyl)phenyl)piperidin-4-yloxy)benzo[d]oxazole-2-carboxamido)piperidine-1-carboxylate] gave an EC50 (compounds of Table 3 (Table 8)) of under 100 nM.

`N#Cc1ccc(CN2CCC(NC(=O)c3nc4ccc(OC5CCN(c6ccc(C(F)(F)F)cc6)CC5)cc4o3)CC2)cc1` [3-2, N-(1-(4-cyanobenzyl)piperidin-4-yl)-6-(1-(4-(trifluoromethyl)phenyl)piperidin-4-yloxy)benzo[d]oxazole-2-carboxamide] gave an EC50 (compounds of Table 3 (Table 8)) of under 100 nM.

For `O=C(NC1CCN(Cc2ccncc2)CC1)c1nc2ccc(OC3CCN(c4ccc(C(F)(F)F)cc4)CC3)cc2o1` [3-3, N-(1-(pyridin-4-ylmethyl)piperidin-4-yl)-6-(1-(4-(trifluoromethyl)phenyl)piperidin-4-yloxy)benzo[d]oxazole-2-carboxamide], the EC50 (compounds of Table 3 (Table 8)) was under 100 nM.

With `O=C(NC1CCN(C(=O)c2ccc(F)cc2)CC1)c1nc2ccc(OC3CCN(c4ccc(C(F)(F)F)cc4)CC3)cc2o1` [3-4, N-(1-(4-fluorobenzoyl)piperidin-4-yl)-6-(1-(4-(trifluoromethyl)phenyl)piperidin-4-yloxy)benzo[d]oxazole-2-carboxamide] the EC50 (compounds of Table 3 (Table 8)) was under 100 nM.

Work on `O=C(NC1CCNCC1)c1nc2ccc(OC3CCN(c4ccc(C(F)(F)F)cc4)CC3)cc2o1` [3-5, N-(piperidin-4-yl)-6-(1-(4-(trifluoromethyl)phenyl)piperidin-4-yloxy)benzo[d]oxazole-2-carboxamide] yielded an EC50 (compounds of Table 3 (Table 8)) of 10000 to 100000 nM.

Work on `N#Cc1ccc(C(=O)N2CCC(NC(=O)c3nc4ccc(OC5CCN(c6ccc(C(F)(F)F)cc6)CC5)cc4o3)CC2)cc1` [3-6, N-(1-(4-cyanobenzoyl)piperidin-4-yl)-6-(1-(4-(trifluoromethyl)phenyl)piperidin-4-yloxy)benzo[d]oxazole-2-carboxamide] yielded an EC50 (compounds of Table 3 (Table 8)) of under 100 nM.

`O=C(c1nc2ccc(OC3CCN(c4ccc(C(F)(F)F)cc4)CC3)cc2o1)N1CC2CC1CN2Cc1ccncc1` (stereo not shown) [3-8, (5-(pyridin-4-ylmethyl)-2,5-diazabicyclo[2.2.1]heptan-2-yl)(6-(1-(4-(trifluoromethyl)phenyl)piperidin-4-yloxy)benzo[d]oxazol-2-yl)methanone] gave an EC50 (compounds of Table 3 (Table 8)) of 100 to 1000 nM.

`NC(=O)c1ccc(CN2CC3CC2CN3C(=O)c2nc3ccc(OC4CCN(c5ccc(C(F)(F)F)cc5)CC4)cc3o2)cc1` (stereo not shown) [3-9, 4-((5-(6-(1-(4-(trifluoromethyl)phenyl)piperidin-4-yloxy)benzo[d]oxazole-2-carbonyl)-2,5-diazabicyclo[2.2.1]heptan-2-yl)methyl)benzamide] was tested, and the EC50 (compounds of Table 3 (Table 8)) was 100 to 1000 nM.

`N#Cc1ccc(CN2CC3CC2CN3C(=O)c2nc3ccc(OC4CCN(c5ccc(C(F)(F)F)cc5)CC4)cc3o2)cc1` (stereo not shown) [3-10, 4-((5-(6-(1-(4-(trifluoromethyl)phenyl)piperidin-4-yloxy)benzo[d]oxazole-2-carbonyl)-2,5-diazabicyclo[2.2.1]heptan-2-yl)methyl)benzonitrile] showed an EC50 (compounds of Table 3 (Table 8)) of 100 to 1000 nM.

With `O=C(c1ccncc1)N1CC2CC1CN2C(=O)c1nc2ccc(OC3CCN(c4ccc(C(F)(F)F)cc4)CC3)cc2o1` (stereo not shown) [3-11, (5-isonicotinoyl-2,5-diazabicyclo[2.2.1]heptan-2-yl)(6-(1-(4-(trifluoromethyl)phenyl)piperidin-4-yloxy)benzo[d]oxazol-2-yl)methanone] the EC50 (compounds of Table 3 (Table 8)) was 100 to 1000 nM.

`N#Cc1ccc(C(=O)N2CC3CC2CN3C(=O)c2nc3ccc(OC4CCN(c5ccc(C(F)(F)F)cc5)CC4)cc3o2)cc1` (stereo not shown) [3-12, 4-(5-(6-(1-(4-(trifluoromethyl)phenyl)piperidin-4-yloxy)benzo[d]oxazole-2-carbonyl)-2,5-diazabicyclo[2.2.1]heptane-2-carbonyl)benzonitrile] showed an EC50 (compounds of Table 3 (Table 8)) of under 100 nM.

`O=C(c1ccc(F)cc1)N1CC2CC1CN2C(=O)c1nc2ccc(OC3CCN(c4ccc(C(F)(F)F)cc4)CC3)cc2o1` (stereo not shown) [3-13, (5-(4-fluorobenzoyl)-2,5-diazabicyclo[2.2.1]heptan-2-yl)(6-(1-(4-(trifluoromethyl)phenyl)piperidin-4-yloxy)benzo[d]oxazol-2-yl)methanone] gave an EC50 (compounds of Table 3 (Table 8)) of under 100 nM.

Compound `O=C(NC1CCN(Cc2ccncc2)CC1)c1cn2ccc(OC3CCN(c4ccc(C(F)(F)F)cc4)CC3)cc2n1` [3-17, N-(1-(pyridin-4-ylmethyl)piperidin-4-yl)-7-(1-(4-(trifluoromethyl)phenyl)piperidin-4-yloxy)imidazo[1,2-a]pyridine-2-carboxamide] has an EC50 (compounds of Table 3 (Table 8)) of under 100 nM.

Work on `N#Cc1ccc(CN2CCC(NC(=O)c3cn4ccc(OC5CCN(c6ccc(C(F)(F)F)cc6)CC5)cc4n3)CC2)cc1` [3-18, N-(1-(4-cyanobenzyl)piperidin-4-yl)-7-(1-(4-(trifluoromethyl)phenyl)piperidin-4-yloxy)imidazo[1,2-a]pyridine-2-carboxamide] yielded an EC50 (compounds of Table 3 (Table 8)) of under 100 nM.

`CC(C)(C)OC(=O)N1CCC(NC(=O)c2cnc(OC3CCN(c4ccc(C(F)(F)F)cc4)CC3)cn2)CC1` [3-19, tert-butyl 4-(5-(1-(4-(trifluoromethyl)phenyl)piperidin-4-yloxy)pyrazine-2-carboxamido)piperidine-1-carboxylate] showed an EC50 (compounds of Table 3 (Table 8)) of 1000 to 10000 nM.

In the case of `O=C(NC1CCN(Cc2ccncc2)CC1)c1cnc(OC2CCN(c3ccc(C(F)(F)F)cc3)CC2)cn1` [3-21, N-(1-(pyridin-4-ylmethyl)piperidin-4-yl)-5-(1-(4-(trifluoromethyl)phenyl)piperidin-4-yloxy)pyrazine-2-carboxamide], the EC50 (compounds of Table 3 (Table 8)) is reported as under 100 nM.

`N#Cc1ccc(CN2CCC(NC(=O)c3cnc(OC4CCN(c5ccc(C(F)(F)F)cc5)CC4)cn3)CC2)cc1` [3-22, N-(1-(4-cyanobenzyl)piperidin-4-yl)-5-(1-(4-(trifluoromethyl)phenyl)piperidin-4-yloxy)pyrazine-2-carboxamide] showed an EC50 (compounds of Table 3 (Table 8)) of under 100 nM.

For `N#Cc1ccc(CN2CCC(NC(=O)c3cnc(OC4CCN(c5ccc(C(F)(F)F)cc5)CC4)s3)CC2)cc1` [3-23, N-(1-(4-cyanobenzyl)piperidin-4-yl)-2-(1-(4-(trifluoromethyl)phenyl)piperidin-4-yloxy)thiazole-5-carboxamide], the EC50 (compounds of Table 3 (Table 8)) was under 100 nM.

Work on `N#Cc1ccc(CN2CCC(NC(=O)c3cnc(OC4CCN(c5ccc(C#N)cc5)CC4)s3)CC2)cc1` [3-24, N-(1-(4-cyanobenzyl)piperidin-4-yl)-2-(1-(4-cyanophenyl)piperidin-4-yloxy)thiazole-5-carboxamide] yielded an EC50 (compounds of Table 3 (Table 8)) of under 100 nM.

`N#Cc1ccc(CN2CCC(NC(=O)c3cnc(OC4CCN(Cc5ccc(C(F)(F)F)cc5)CC4)s3)CC2)cc1` [3-25, N-(1-(4-cyanobenzyl)piperidin-4-yl)-2-(1-(4-(trifluoromethyl)benzyl)piperidin-4-yloxy)thiazole-5-carboxamide] gave an EC50 (compounds of Table 3 (Table 8)) of under 100 nM.
